Reference: ChEMBL document CHEMBL1201862, “PubChem BioAssay data set” (2004)
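Test compounds were applied to cells in 96-well plates for 48 hours at 5 doses. GI50 marks 50% less growth.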 The source made the active and inactive calls. Cut-off read from the data, not from the text of the source: active = GI50 up to about 1.1 µM and inactive = higher.

Tests used:
Assay in all cases: growth of human tumour cells (NCI), 48 h
[1] = system: NCI-H23
[2] = system: SNB-75
[3] = system: Malme-3M
[4] = system: U-251
[5] = system: HCT-15
[6] = system: HCC 2998
[7] = system: HCT-116
[8] = system: RPMI-8226
[9] = system: CAKI-1
[10] = system: UACC-257
[11] = system: K562
[12] = system: NCI-H522
[13] = system: UACC-62
[14] = system: MOLT-4
[15] = system: SK-MEL-28
[16] = system: EKVX
[17] = system: A549
[18] = system: OVCAR-5

SMILES	GI50 [1]	GI50 [2]	GI50 [3]	GI50 [4]	GI50 [5]	GI50 [6]	GI50 [7]	GI50 [8]	GI50 [9]	GI50 [10]	GI50 [11]	GI50 [12]	GI50 [13]	GI50 [14]	GI50 [15]	GI50 [16]	GI50 [17]	GI50 [18]
O=C1CCCCCCCCCCC(=O)C2CCOCCOCCOCCC1Cc1cccc(n1)C2	> 100 µM (inactive)	49.3 µM (inactive)	> 100 µM (inactive)	> 100 µM (inactive)	83.2 µM	46.1 µM (inactive)	88.7 µM (inactive)	39.1 µM (inactive)	41.2 µM (inactive)	> 100 µM (inactive)	50.1 µM (inactive)	43.9 µM (inactive)	> 100 µM (inactive)	31.6 µM (inactive)	> 100 µM (inactive)	> 100 µM (inactive)	> 100 µM (inactive)	
CC(C)(C)[Si](C)(C)O/N=C\c1cccc(O[Si](C)(C)C(C)(C)C)c1		16.7 µM (inactive)	42.4 µM (inactive)	17.5 µM (inactive)	19.2 µM	18.3 µM (inactive)	18.6 µM (inactive)	17 µM (inactive)	24.8 µM (inactive)	21.9 µM (inactive)	18.1 µM (inactive)		16.7 µM (inactive)	18.1 µM (inactive)		18.5 µM (inactive)	17.8 µM (inactive)	20.1 µM (inactive)
CN(C)C(=S)/N=c1\ss/c(=N\C(=S)N(C)C)n1-c1ccc2c(c1)OCO2	> 100 µM (inactive)	> 100 µM (inactive)	> 100 µM (inactive)	> 100 µM (inactive)	> 100 µM	> 100 µM (inactive)	> 100 µM (inactive)		> 100 µM (inactive)	> 100 µM (inactive)	4.86 µM (inactive)	15.6 µM (inactive)	5.56 µM (inactive)		> 100 µM (inactive)	> 100 µM (inactive)	> 100 µM (inactive)	> 100 µM (inactive)
COC(=O)C(CC(=O)c1c[nH]c2ccccc12)c1c[nH]c2ccccc12 (configuration not stated)	16.7 µM (inactive)	21.2 µM (inactive)	19.1 µM (inactive)	20.8 µM (inactive)	16.4 µM	23 µM (inactive)	15.8 µM (inactive)	11.5 µM (inactive)	20 µM (inactive)	15.4 µM (inactive)	18.1 µM (inactive)		> 10 µM (inactive)	16.2 µM (inactive)	19.5 µM (inactive)	23.4 µM (inactive)	21.2 µM (inactive)	22.2 µM (inactive)
CC1(C)COC(c2ccc(C(F)(F)F)cc2C(O)c2ccc3ccccc3c2)=N1 (configuration not stated)	28.9 µM (inactive)	15.8 µM (inactive)	> 10 µM (inactive)	> 10 µM (inactive)	> 10 µM	> 10 µM (inactive)	> 10 µM (inactive)	> 100 µM (inactive)	94.6 µM (inactive)	> 10 µM (inactive)	> 10 µM (inactive)	> 10 µM (inactive)	> 10 µM (inactive)	> 10 µM (inactive)	> 10 µM (inactive)	> 10 µM (inactive)	99.5 µM (inactive)	> 10 µM (inactive)
COC1[C@@H](OC(C)=O)[C@@H](NC(=O)C(Cl)(Cl)Cl)C(I)[C@@H](N2C(=O)c3ccccc3C2=O)[C@H]1OC (some centres not stated)	> 100 µM (inactive)	> 100 µM (inactive)		> 100 µM (inactive)	> 100 µM		> 100 µM (inactive)	> 100 µM (inactive)		> 100 µM (inactive)	> 100 µM (inactive)	> 100 µM (inactive)	> 100 µM (inactive)	> 100 µM (inactive)	> 100 µM (inactive)	> 100 µM (inactive)	> 100 µM (inactive)	> 100 µM (inactive)
CN(c1n[n+]2c(-c3ccccc3)csc2s1)c1n[n+]2c(-c3ccccc3)csc2s1	> 100 µM (inactive)	> 100 µM (inactive)	26.3 µM (inactive)		0.144 µM	> 100 µM (inactive)	> 100 µM (inactive)	> 100 µM (inactive)		> 100 µM (inactive)	42.8 µM (inactive)	33.7 µM (inactive)	> 100 µM (inactive)	> 100 µM (inactive)	> 100 µM (inactive)	> 100 µM (inactive)	> 100 µM (inactive)	> 100 µM (inactive)
COc1ccc(/C=C2\CCC(CCN(C)C)(C3=CCCC3)C2=O)cc1 (configuration not stated)	29 µM (inactive)	19 µM (inactive)	16 µM (inactive)	16.5 µM (inactive)	22.3 µM	18.6 µM (inactive)	15.1 µM (inactive)	20.8 µM (inactive)	10.7 µM (inactive)	16.9 µM (inactive)	15.7 µM (inactive)	16.1 µM (inactive)	16.4 µM (inactive)	23.9 µM (inactive)	19 µM (inactive)	14 µM (inactive)	19.2 µM (inactive)	21.5 µM (inactive)
